The values that follow come from patent US20090042879A1, “PHTHALAZINONE DERIVATIVES AND PHARMACEUTICAL COMPOSITIONS COMPRISING THE SAME” (NIPPON SHINYAKU CO., LTD., priority 2005, published 2009).

Data set [1] has as its system TNCB-induced dermatitis. Nature of the data set: Dermatitis inhibitory effect in trinitrochlorobenzene (TNCB)-induced dermatitis model. The data set is classed as in vivo, BALB/C mouse. Conditions: 20 mg of 1.0% test compound/vaseline ointment on right pinna, five times in 1 week; pinna thickness 6 hours after last application. On the procedure:
The dermatitis inhibitory effect of a test compound was investigated, using a trinitrochlorobenzene (TNCB)-induced dermatitis model (J. Invest. Dermatol., 105, 749-755, 1995, J. Immuno., 159, 2484-2491, 1997).
20 μL of 1% (w/v) TNCB/acetone solution was applied dropwise to both sides of the right pinna of a BALB/C mouse (♂, 8-week old), whereby the mouse was sensitized. From day 7 after the sensitization with TNCB, 1% TNCB/acetone solution was applied to both sides of the right pinna of the mouse every other day at 3 times/week, for 3 weeks in total. TNCB was applied for 2 weeks so as to fully induce dermatitis in the mouse, and then 20 mg of 1.0% test compound/vaseline ointment was applied to both sides of the right pinna five times in total for 1 week. At 6 hours after the last application, the thickness of the right pinna of the mouse was measured, and the effect of the test compound on dermatitis was thus evaluated. The inhibitory rate was calculated according to the following formula.
Inhibitory Rate (%)={1−[mean thickness of inflamed pinna (right ear) of chemical-treated group−mean thickness of non-inflamed pinna (left ear) of the group]/[mean thickness of inflamed pinna (right ear) of diseased control group−mean thickness of non-inflamed pinna (left ear) of the group]}×100.

Data set [2] has as its target T1, human recombinant PDE4D (Homo sapiens, UniProt Q08499).
T1 construct: purchased ABNOVA H00005144-P01
Nature of the data set: PDE4 inhibitory activity (cAMP hydrolysis, HitHunter cAMP II chemiluminescent kit). The data set is classed as biochemical. The note with it: 5 ng human recombinant PDE4D, 1 pmol cAMP, 30° C. for 30 minutes. The protocol: The activity of a test compound to inhibit human PDE4 was evaluated in the manner mentioned below.
In the presence of a test compound (10^−7 to 10^−12 M), 1 pmol of cAMP was hydrolyzed through incubation with 5 ng of human recombinant PDE4D (ABNOVA's #H00005144-P01, Lot. FAK0050713Jb01, Taiwan) at 30° C. for 30 minutes. After the hydrolysis, the cAMP concentration was measured with a chemiluminescent kit, HitHunter cAMP II Assay Kit (by Amersham Bioscience).

For data set [3], the system named is TNF-α production from rat whole blood cells stimulated with LPS. Nature of the data set: TNF-α production-suppressing activity in LPS-stimulated rat whole blood (ELISA). The data set is classed as cell-based. Conditions: 37° C. for 5 hours. On the procedure:
The activity of a test compound to suppress TNF-α production from rat whole blood cells stimulated with LPS was evaluated in the manner mentioned below (J. Pharmacol. Exp. Ther., 302, 390-396, 2000).
Under anesthesia with ether, a proper amount of blood was taken out from a 10-week male SD rat (♂, 10-week old) through its abdominal vein into a tube with EDTA (1.6 mg/mL) therein. A test compound was dissolved in dimethyl sulfoxide to prepare its 10^−2 M solution, which was diluted before use. 80 μL of rat blood was dispensed into each well of a 96-well plate, then 10 μL of the test compound solution was added thereto, and incubated at 37° C. in 5% CO2 for 30 minutes. The test compound and the blood were well mixed, then 10 μL of LPS (100 μg/mL) was added thereto, and incubated at 37° C. in 5% CO2 for 5 hours. Further, 100 μL of PBS was added to each well, then the plate was centrifuged at 4000 rpm for 2 minutes to collect the supernatant, and this was frozen and stored at −80° C. until its use for analysis. The amount of TNF-α production was measured through ELISA. IC50 for TNF-α production-suppressing activity was calculated as the test compound concentration for 50% inhibition of TNF-α production.
As a control compound, the above-mentioned known compound (compound of general formula [A] in which R is a carboxyl group, cis-4-[4-(3,4-dimethoxyphenyl)-1-oxo-4a,5,8,8a-tetrahydro-1H-phthalazin-2-yl-methyl]benzoic acid (hereinafter referred to as control compound A)) was used.
In general terms: ELISA stands for enzyme-linked immunosorbent assay.

Data set [4] can be described thus: Metabolism by human liver microsome. The class given is in vitro ADME. The note with it: NADPH producing system, 37° C., 10 minutes after start of incubation. The protocol: The metabolic characteristics of a test compound were investigated, using human liver microsome.
400 μL of EP buffer (0.25 mM EDTA, 0.25 M potassium phosphate buffer, pH 7.4), 50 μL of 20 mg/mL human liver microsome fraction (by KAC), 350 μl of pure water and 100 μL of 1×10^−4 M test compound were put into a 1.5 mL microtube, and preincubated at 37° C. for 5 minutes. 100 μL of an NADPH producing system (containing 20 mg of NADP+, 70 mg of G6P, 40 units of G6PDH, 20 mg of magnesium chloride hexahydrate in 1 mL of pure water) was added to it, and incubated. To 100 μL of the sample taken at 10 minutes after the start of the incubation, added was the same amount of acetonitrile, and the reaction was thereby stopped. […] 20 μL of the supernatant was led into a high-performance liquid chromatography (Shimadzu'sSPD-10A, LC-10AS, CTO-10A, C-R6A), and the peak area of the test compound at 320 nm was measured, using a C18 column (Cadenza, CD-C18, 75×4.6 mm). […] Under the condition, the peak area of the test compound was measured. The metabolic rate was calculated as follows: 100 μL of acetonitrile was added to 90 μL of the above pre-incubated solution, and then 10 μl of the NADPH producing system was added thereto, and the resulting solution was analyzed for the peak area of the test compound. Based on it, the metabolic rate in 10 minutes after the incubation was calculated.
(Microsomes from liver hold many membrane-bound enzymes, among them those of drug oxidation.)

The mark [5] stands for this setting: Rattus norvegicus, Whole blood cell, 5 h.

SMILES strings stand for the structures.

T1 sequence (Q08499 whole entry): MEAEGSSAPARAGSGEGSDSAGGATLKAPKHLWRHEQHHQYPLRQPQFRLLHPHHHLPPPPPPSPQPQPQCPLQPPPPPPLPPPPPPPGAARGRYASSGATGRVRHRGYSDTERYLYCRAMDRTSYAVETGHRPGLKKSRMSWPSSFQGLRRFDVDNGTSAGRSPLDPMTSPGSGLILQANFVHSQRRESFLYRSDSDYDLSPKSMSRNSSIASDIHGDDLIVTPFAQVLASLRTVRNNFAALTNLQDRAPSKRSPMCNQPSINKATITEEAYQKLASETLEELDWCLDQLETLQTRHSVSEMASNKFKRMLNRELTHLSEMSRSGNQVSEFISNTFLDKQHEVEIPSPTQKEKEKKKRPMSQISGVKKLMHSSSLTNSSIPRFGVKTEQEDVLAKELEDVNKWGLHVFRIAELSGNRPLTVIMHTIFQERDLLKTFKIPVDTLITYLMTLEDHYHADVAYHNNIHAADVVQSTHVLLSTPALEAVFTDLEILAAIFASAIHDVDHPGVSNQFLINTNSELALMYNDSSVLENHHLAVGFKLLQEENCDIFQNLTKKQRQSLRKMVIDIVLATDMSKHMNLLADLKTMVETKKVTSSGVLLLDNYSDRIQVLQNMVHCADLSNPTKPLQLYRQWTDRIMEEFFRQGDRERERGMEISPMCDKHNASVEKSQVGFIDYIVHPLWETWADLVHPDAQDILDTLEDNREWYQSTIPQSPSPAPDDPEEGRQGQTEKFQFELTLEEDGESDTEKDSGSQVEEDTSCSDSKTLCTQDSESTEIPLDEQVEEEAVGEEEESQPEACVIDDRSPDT

With `COc1ccc(C2=NN(Cc3ccc(CN4CCC5(CC4)OCCO5)cc3)C(=O)[C@H]3CC=CC[C@@H]23)cc1OC` (relative stereo) [Example 5, cis-4-(3,4-Dimethoxyphenyl)-2-[4-(1,4-dioxa-8-azaspiro[4,5]dec-8-ylmethyl)benzyl]-4a,5,8,8a-tetrahydro-2H-phthalazin-1-one], the “Dermatitis Inhibitory Percentage (%)” value in data set [1] amounted to 20.2%. In addition, the IC50 (in general, the concentration at which inhibition is half-maximal) in data set [2] was 0.02 µM; in data set [3] (Whole blood cell) it was 0.199 µM.
On to `COc1ccc(C2=NN(Cc3ccc(CN4CCC(=O)CC4)cc3)C(=O)[C@H]3CC=CC[C@@H]23)cc1OC` (relative stereo) [Example 6, cis-4-(3,4-Dimethoxyphenyl)-2-[4-(4-oxopiperidin-1-ylmethyl)benzyl]-4a,5,8,8a-tetrahydro-2H-phthalazin-1-one], for which the “Dermatitis Inhibitory Percentage (%)” value in data set [1] is listed as 36.8%. Moreover, the IC50 in data set [2] came out at 0.0013 µM; in data set [3] (setting [5]) it was 0.084 µM.
`COc1ccc(C2=NN(Cc3ccc(Cn4ccnc4)cc3)C(=O)[C@H]3CC=CC[C@@H]23)cc1OC` (relative stereo) [Example 9, cis-4-(3,4-Dimethoxyphenyl)-2-[4-(imidazol-1-ylmethyl)benzyl]-4a,5,8,8a-tetrahydro-2H-phthalazin-1-one]: the figures for the IC50 in data set [2] and in data set [3] (setting [5]) were 0.025 µM and 0.001 µM, respectively.
Turning to `COc1ccc(C2=NN(Cc3cccc(CN4CCOCC4)c3)C(=O)[C@H]3CC=CC[C@@H]23)cc1OC` (relative stereo) [Example 10, cis-4-(3,4-Dimethoxyphenyl)-2-[3-(morpholin-4-ylmethyl)benzyl]-4a,5,8,8a-tetrahydro-2H-phthalazin-1-one], in data set [1], the “Dermatitis Inhibitory Percentage (%)” value is reported as 31.1%. Further, the IC50 was 0.02 µM in data set [2] and 0.107 µM in data set [3] (Whole blood cell).
For the molecule `COc1ccc(C2=NN(Cc3ccc(CN4CCOCC4)cc3)C(=O)[C@H]3CCCC[C@@H]23)cc1OC` (relative stereo) [Example 13, cis-4-(3,4-Dimethoxyphenyl)-2-[4-(morpholin-4-ylmethyl)benzyl]-4a,5,6,7,8,8a-hexahydro-2H-phthalazin-1-one], the “Dermatitis Inhibitory Percentage (%)” value in data set [1] is recorded as 33.2%. In addition, the IC50 turned out to be 0.005 µM in data set [2] and 0.059 µM in data set [3] (Whole blood cell).
`COc1ccc(C2=NN(Cc3ccc(CN4CCNC(=O)C4)cc3)C(=O)[C@H]3CC=CC[C@@H]23)cc1OC` (relative stereo) [Example 16, cis-(+)-4-(3,4-Dimethoxyphenyl)-2-[4-(3-oxopiperazin-1-ylmethyl)benzyl]-4a,5,8,8a-tetrahydro-2H-phthalazin-1-one]: the IC50 in data set [3] (Whole blood cell) was determined as 0.0049 µM.
In data set [3] (Whole blood cell), `COc1ccc(C2=NN(Cc3cccc(CN4CCNC(=O)C4)c3)C(=O)[C@H]3CC=CC[C@@H]23)cc1OC` (relative stereo) [Example 20, cis-(+)-4-(3,4-dimethoxyphenyl)-2-[3-(3-oxopiperazin-1-ylmethyl)benzyl]-4a,5,8,8a-tetrahydro-2H-phthalazin-1-one] displayed a half-inhibitory concentration (IC50) of 0.019 µM.
Still for that read-out and setting: with `COc1ccc(C2=NN(Cc3ccc(C[N+]4([O-])CCOCC4)cc3)C(=O)[C@H]3CC=CC[C@@H]23)cc1OC` (relative stereo) [Example 21, cis-(+)-4-{4-[4-(3,4-dimethoxyphenyl)-1-oxo-4a,5,8,8a-tetrahydro-1H-phthalazin-2-ylmethyl]benzyl}morpholine 4-oxide] the figure was 0.012 µM.
Still for that read-out and setting: with `COc1ccc(C2=NN(Cc3ccc(N4CCOCC4)cc3)C(=O)[C@H]3CC=CC[C@@H]23)cc1OC` (relative stereo) [Example 24, cis-4-(3,4-Dimethoxyphenyl)-2-(4-morpholin-4-ylbenzyl)-4a,5,8,8a-tetrahydro-2H-phthalazin-1-one] the figure was 0.012 µM.
As for `COc1ccc(C2=NN(Cc3ccc(C(=O)O)cc3)C(=O)[C@H]3CC=CC[C@@H]23)cc1OC` (relative stereo) [control compound A, cis-4-[4-(3,4-dimethoxyphenyl)-1-oxo-4a,5,8,8a-tetrahydro-1H-phthalazin-2-yl-methyl]benzoic acid, reference compound], in data set [1], the “Dermatitis Inhibitory Percentage (%)” value is listed as 2.6%. For the same molecule, the “Metabolic Rate (%)” value in data set [4] worked out at 35.2%. For the same molecule, in data set [3] (Whole blood cell), 133 µM corresponded to half-maximal inhibition (IC50).
The corresponding values for `COc1ccc(C2=NN(Cc3ccc(CN4CCOCC4)cc3)C(=O)C3CC=CCC23)cc1OC` (single isomer, unassigned) [Example 2-1, cis-(+)-4-(3,4-Dimethoxyphenyl)-2-[4-(morpholin-4-ylmethyl)benzyl]-4a,5,8,8a-tetrahydro-2H-phthalazin-1-one] are 38.5%, 61.5% and 0.0024 µM.
`COc1ccc(C2=NN(Cc3ccc(CN4CCOCC4)cc3)C(=O)C3CC=CCC23)cc1OC` (single isomer, unassigned) [Example 2-2, cis-(+)-4-(3,4-Dimethoxyphenyl)-2-[4-(morpholin-4-ylmethyl)benzyl]-4a,5,8,8a-tetrahydro-2H-phthalazin-1-one monomaleate]: the IC50 in data set [2] came out at 0.00079 µM; in data set [3] (monomaleate), 0.0011 µM.
Consider `COc1ccc(C2=NN(Cc3ccc(CN4CCOCC4)cc3)C(=O)C3CC=CCC23)cc1OC` (stereo not drawn) [Example 1, cis-4-(3,4-Dimethoxyphenyl)-2-[4-(morpholin-4-ylmethyl)benzyl]-4a,5,8,8a-tetrahydro-2H-phthalazin-1-one], for which, in data set [1], the “Dermatitis Inhibitory Percentage (%)” value stood at 31.2%. For the same molecule, the IC50 in data set [2] amounted to 0.063 µM; in data set [3] (setting [5]), 0.0043 µM.
